Measurements from PMC8121805, “Discovery of first-in-class inhibitors of ASH1L histone methyltransferase with anti-leukemic activity” (Nature Communications, 2021).
“And” between values parts separate entries of the source, which are not always exact repeats. Equal entries are not always repeated. “Also recorded” adds a separate entry of the source.

Experiments:
K562 cells = test: Annexin V apoptosis assay (flow cytometry); format: cell-based, human; settings: for K562 % Annexin V/PI+ cells: 7 days
[1] = system: luciferase-expressing MV4;11 cells in NSG mice; test: MV4;11 xenotransplantation bioimaging model (bioluminescence); format: in vivo, mouse; settings: for average radiance: individual mice, 30 mg/kg q.d. i.p.
[2] = system: MV4;11 leukemic blasts (human CD45+ cells) in NSG mice; test: Flow cytometry of hCD45+ cells in spleen and peripheral blood; format: in vivo, mouse
Procedure: Red blood cells were lysed with ACK lysis buffer (10-548E, Lonza). Up to 100,000 cells were washed in PBS (with 1% FBS) and stained with the anti–human CD45-BV421 antibody (563879, HI30, BD Biosciences) at 1:50 dilution for 30 min.

[3] = Effect on normal hematopoiesis: flow cytometry of myeloid, B- and T-cells in blood; format: in vivo
Source text: width, MPV – Mean platelet volume). n = 9 mice / group. Mean +/- SD. b) Flow cytometry analysis […]
assess the effect on myeloid, B- and T-cells. Statistical significance calculated us ing unpaired 2-tailed t-test. n = 9 mice / group. Mean +/- SD. ns - not significant. (c) Representative gating strategy corresponding to the Supplementary Figure 12b for quantification of myeloid, B- and T-cells in blood samples of mice treated with vehicle or AS-99. SSC-A – side scatter area; FSC-A – forward scatter area; FSC-H – forward scatter height.

DOT1L = DOT1L (Homo sapiens, UniProt Q8TEK3); test: HMT selectivity panel; settings: 50 µM compound
Procedure: (§1) mM DTT and 0.01% Triton X-100 was used in experiments containing core histone.
experiments containing nucleosome.
G9a 5 core histone 0.05 mg/mL 1
GLP 5 core histone 0.05 mg/mL 1

GLP = GLP (Homo sapiens, UniProt Q9H9B1); test: HMT selectivity panel; settings: 50 µM compound
Sequence of GLP (Q9H9B1 whole entry): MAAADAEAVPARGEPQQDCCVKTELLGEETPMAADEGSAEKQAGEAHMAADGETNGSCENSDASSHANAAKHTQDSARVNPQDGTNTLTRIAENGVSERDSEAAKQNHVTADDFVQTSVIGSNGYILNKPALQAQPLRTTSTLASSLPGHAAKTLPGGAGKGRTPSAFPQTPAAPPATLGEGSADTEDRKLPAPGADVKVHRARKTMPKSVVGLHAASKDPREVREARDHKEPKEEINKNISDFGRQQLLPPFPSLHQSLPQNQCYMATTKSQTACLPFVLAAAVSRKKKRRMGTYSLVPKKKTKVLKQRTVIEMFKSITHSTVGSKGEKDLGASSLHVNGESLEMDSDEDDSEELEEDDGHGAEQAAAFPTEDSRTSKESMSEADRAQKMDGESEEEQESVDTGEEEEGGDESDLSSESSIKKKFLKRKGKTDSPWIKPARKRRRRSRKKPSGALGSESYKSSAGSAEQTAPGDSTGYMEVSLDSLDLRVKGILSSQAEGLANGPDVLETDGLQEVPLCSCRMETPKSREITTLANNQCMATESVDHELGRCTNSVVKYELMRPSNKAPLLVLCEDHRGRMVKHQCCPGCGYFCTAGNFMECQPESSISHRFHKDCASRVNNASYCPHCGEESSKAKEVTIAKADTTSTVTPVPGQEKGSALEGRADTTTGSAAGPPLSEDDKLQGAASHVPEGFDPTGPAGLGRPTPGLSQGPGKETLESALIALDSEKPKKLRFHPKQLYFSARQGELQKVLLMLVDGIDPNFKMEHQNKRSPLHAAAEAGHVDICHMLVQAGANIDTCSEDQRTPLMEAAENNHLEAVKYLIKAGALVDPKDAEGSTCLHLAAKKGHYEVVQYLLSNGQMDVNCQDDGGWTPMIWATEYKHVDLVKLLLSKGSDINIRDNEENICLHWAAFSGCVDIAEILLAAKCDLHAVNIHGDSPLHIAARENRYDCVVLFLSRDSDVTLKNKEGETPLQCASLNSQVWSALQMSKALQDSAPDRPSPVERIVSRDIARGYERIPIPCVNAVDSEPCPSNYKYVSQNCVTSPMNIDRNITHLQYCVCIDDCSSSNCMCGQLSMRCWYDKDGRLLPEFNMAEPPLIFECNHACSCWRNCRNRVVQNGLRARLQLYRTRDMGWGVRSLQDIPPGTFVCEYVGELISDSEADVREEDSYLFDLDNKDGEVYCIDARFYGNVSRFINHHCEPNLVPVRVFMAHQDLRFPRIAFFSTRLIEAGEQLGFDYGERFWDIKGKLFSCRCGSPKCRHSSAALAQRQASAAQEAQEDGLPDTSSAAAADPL
Procedure: as §1
experiments containing nucleosome.
G9a 5 core histone 0.05 mg/mL 1
GLP 5 core histone 0.05 mg/mL 1

MLL1 = MLL1 (Homo sapiens, UniProt Q03164); test: HMT selectivity panel; settings: MLL1, 50 µM compound
Source text: as §1

MLL4 = test: HMT selectivity panel; settings: MLL4, 50 µM compound
Source text: as §1

NSD2 = NSD2 (Homo sapiens, UniProt O96028); test: HMT selectivity panel; settings: NSD2, 50 µM compound
Source text: as §1

NSD3 = NSD3 (Homo sapiens, UniProt Q9BZ95); test: HMT selectivity panel; settings: NSD3, 50 µM compound
Sequence of NSD3 (Q9BZ95 whole entry, species assumed): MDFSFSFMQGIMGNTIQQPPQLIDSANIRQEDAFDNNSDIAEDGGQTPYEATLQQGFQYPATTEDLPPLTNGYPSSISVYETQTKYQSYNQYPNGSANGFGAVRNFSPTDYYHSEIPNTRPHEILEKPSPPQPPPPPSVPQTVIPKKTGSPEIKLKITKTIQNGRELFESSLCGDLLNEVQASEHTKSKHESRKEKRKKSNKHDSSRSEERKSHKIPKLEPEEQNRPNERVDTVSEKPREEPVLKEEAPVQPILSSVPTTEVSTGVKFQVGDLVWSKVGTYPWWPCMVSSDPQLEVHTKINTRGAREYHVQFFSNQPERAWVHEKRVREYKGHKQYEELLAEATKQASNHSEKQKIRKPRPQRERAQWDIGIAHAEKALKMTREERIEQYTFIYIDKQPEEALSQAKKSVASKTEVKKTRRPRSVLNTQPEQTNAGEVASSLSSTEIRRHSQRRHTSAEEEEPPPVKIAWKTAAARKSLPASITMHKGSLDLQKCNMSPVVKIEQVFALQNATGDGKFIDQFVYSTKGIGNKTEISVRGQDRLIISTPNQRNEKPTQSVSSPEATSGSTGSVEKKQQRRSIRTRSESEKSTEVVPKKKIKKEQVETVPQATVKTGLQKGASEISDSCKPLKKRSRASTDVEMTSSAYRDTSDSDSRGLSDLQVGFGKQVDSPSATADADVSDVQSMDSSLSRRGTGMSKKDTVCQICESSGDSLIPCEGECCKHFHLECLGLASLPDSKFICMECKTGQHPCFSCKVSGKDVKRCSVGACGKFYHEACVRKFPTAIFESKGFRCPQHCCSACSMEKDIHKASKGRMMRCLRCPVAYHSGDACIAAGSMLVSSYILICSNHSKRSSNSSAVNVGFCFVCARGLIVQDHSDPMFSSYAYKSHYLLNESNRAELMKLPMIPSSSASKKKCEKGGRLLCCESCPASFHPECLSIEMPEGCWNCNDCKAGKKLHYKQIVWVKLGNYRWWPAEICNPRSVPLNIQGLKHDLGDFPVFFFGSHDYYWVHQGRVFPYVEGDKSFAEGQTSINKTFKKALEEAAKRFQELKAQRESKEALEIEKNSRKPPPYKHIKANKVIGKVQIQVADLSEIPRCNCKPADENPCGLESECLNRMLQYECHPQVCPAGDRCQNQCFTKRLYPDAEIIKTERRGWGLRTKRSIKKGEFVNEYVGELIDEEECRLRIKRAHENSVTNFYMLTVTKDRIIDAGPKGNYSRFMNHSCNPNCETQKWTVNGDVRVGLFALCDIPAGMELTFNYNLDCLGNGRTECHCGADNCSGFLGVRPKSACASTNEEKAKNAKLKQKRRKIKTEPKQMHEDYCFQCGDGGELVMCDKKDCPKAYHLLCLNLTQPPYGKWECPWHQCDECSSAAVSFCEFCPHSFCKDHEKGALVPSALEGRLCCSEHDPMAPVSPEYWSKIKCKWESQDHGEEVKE
Source text: as §1

PRDM9 = PRDM9 (Homo sapiens, UniProt Q9NQV7); test: HMT selectivity panel; settings: PRDM9, 50 µM compound
Sequence of PRDM9 (Q9NQV7 whole entry, species assumed): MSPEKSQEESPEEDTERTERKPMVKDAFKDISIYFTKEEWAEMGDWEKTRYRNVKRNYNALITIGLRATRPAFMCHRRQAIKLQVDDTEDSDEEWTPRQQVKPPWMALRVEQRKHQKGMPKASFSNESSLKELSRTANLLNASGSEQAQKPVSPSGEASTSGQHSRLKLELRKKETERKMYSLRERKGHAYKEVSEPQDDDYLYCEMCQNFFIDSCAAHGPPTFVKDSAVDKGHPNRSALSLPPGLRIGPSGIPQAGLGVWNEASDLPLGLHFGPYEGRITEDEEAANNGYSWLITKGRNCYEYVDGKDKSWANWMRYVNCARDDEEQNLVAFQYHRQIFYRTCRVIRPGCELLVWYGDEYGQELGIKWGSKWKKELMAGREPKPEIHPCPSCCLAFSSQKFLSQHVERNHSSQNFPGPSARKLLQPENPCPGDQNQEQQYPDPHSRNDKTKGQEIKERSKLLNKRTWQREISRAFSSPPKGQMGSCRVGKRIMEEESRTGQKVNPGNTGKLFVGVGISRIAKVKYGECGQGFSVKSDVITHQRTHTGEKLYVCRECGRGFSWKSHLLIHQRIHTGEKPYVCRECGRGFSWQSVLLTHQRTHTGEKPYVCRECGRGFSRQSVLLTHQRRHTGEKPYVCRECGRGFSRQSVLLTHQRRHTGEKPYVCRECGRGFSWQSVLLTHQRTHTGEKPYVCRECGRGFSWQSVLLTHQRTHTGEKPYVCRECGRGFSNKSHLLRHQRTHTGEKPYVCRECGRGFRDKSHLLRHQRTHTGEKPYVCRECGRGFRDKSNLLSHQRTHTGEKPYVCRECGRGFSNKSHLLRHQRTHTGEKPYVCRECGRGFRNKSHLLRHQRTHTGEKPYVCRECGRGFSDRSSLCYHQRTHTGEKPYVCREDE
Source text: as §1

PRMT1 = PRMT1 (Homo sapiens, UniProt Q99873); test: HMT selectivity panel; settings: PRMT1, 50 µM compound
Sequence of PRMT1 (Q99873 whole entry, species assumed): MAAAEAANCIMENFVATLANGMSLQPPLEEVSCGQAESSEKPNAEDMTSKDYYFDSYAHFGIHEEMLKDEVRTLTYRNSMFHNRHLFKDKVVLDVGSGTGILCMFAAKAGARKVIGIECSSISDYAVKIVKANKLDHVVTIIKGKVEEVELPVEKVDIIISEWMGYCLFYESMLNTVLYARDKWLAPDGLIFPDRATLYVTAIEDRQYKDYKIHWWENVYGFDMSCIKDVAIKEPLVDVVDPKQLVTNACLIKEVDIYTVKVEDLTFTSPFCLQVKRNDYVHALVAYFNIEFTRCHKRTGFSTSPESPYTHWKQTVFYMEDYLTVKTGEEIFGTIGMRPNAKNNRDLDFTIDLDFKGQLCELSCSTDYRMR
Source text: as §1

PRMT6 = PRMT6 (Homo sapiens, UniProt Q96LA8); test: HMT selectivity panel; settings: PRMT6, 50 µM compound
Source text: as §1

SETD2 = SETD2 (Homo sapiens, UniProt Q9BYW2); test: HMT selectivity panel; settings: SETD2, 50 µM compound
Source text: (§2) Assay conditions for selectivity experiments with a panel of histone
as §1

SMYD1 = SMYD1 (Homo sapiens, UniProt Q8NB12); test: HMT selectivity panel; settings: SMYD1, 50 µM compound
Sequence of SMYD1 (Q8NB12 whole entry, species assumed): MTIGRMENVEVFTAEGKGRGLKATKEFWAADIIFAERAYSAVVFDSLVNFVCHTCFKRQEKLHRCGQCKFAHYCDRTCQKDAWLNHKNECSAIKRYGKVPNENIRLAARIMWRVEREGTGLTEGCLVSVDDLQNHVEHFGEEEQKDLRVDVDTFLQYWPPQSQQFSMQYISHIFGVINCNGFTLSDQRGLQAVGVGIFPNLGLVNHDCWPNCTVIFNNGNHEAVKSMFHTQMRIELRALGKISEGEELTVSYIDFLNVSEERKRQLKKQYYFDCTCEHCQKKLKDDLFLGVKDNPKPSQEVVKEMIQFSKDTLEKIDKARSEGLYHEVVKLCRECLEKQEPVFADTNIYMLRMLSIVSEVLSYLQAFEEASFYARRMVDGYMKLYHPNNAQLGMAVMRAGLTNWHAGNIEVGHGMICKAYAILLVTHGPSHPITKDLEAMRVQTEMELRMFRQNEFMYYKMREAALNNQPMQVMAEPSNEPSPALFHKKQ
Source text: as §2, §1

SMYD2 = SMYD2 (Homo sapiens, UniProt Q9NRG4); test: HMT selectivity panel; settings: SMYD2, 50 µM compound
Source text: as §2, §1

SUV39H2 = SUV39H2 (Homo sapiens, UniProt Q9H5I1); test: HMT selectivity panel; settings: SUV39H2, 50 µM compound
Sequence of SUV39H2 (Q9H5I1 whole entry, species assumed): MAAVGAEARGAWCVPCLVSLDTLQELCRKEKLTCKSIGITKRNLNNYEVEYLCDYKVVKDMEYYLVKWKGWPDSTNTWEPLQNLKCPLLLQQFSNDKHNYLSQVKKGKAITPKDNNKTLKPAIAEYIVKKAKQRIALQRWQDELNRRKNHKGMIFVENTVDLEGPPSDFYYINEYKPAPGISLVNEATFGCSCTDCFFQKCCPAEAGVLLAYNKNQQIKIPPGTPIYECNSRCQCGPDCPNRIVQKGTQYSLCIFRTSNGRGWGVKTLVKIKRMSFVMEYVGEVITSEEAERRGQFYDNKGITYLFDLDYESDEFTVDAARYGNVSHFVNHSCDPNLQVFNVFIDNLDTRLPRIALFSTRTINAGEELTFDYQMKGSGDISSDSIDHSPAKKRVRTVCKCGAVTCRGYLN
Source text: as §2, §1

[4] = system: panel of diverse set of 30 kinases; test: Profiling with kinases; settings: 25 µM, 1 h incubation
Source text: This study was outsourced to the Contract Research Organization.

[5] = system: panel of 20 histone methyltransferases; test: Panel of 20 histone methyltransferases as a whole; settings: 50 µM
Procedure: as §1
experiments containing nucleosome.
G9a 5 core histone 0.05 mg/mL 1
GLP 5 core histone 0.05 mg/mL 1

[6] = individual mice, after last day of treatment, 30 mg/kg q.d. i.p., 30 mg/kg
[7] = Fig S12b, individual mice, AS-99 group
[8] = normal mice, 30 mg/kg, i.p., q.d., 14 days
[9] = female, CD-1, mouse, plasma, other: i.v. and i.p.

Procedure for PK studies in mice: The LC-MS/MS method consisted of a Shimadzu UFLC 20 A system and chromatographic separation of test compound was achieved using Waters XBridge C18 column (5 cm × 2.1 mm, 3.5 µm). An AB Sciex QTrap 5500 mass spectrometer equipped with an electrospray ionization source (ABI-Sciex, Toronto, Canada) in the positive-ion multiple reaction monitoring (MRM) mode was used for detection. All pharmacokinetic parameters were calculated by noncompartmental methods using WinNonlin® version 3.2 (Pharsight Corporation, Mountain View, CA, USA). Parameters are presented as a mean ± standard deviation (SD).
CL (clearance), AUC (area under the curve),
Cmax (maximum concentration achieved), Tmax (time at which maximum concentration was
achieved), were calculated by noncompartmental methods using WinNonlin® software version

CN1CC(C(=O)NCc2ccc3c(-c4cccc(C(N)=S)c4)cn(C4CCN(S(=O)(=O)C(F)(F)F)CC4)c3c2)C1 [AS-99]
apoptosis in K562 cells (K562 cells): not in the K562 cells
K562 % Annexin V/PI+ cells (K562 cells; 2 uM): 10.85% and 7.41% and 3.78%
K562 % Annexin V/PI+ cells (K562 cells; 4 uM): 7.07% and 5.34% and 5.33%
K562 % Annexin V/PI+ cells (K562 cells; 6 uM): 4.92% and 4.78% and 6.63%
K562 % Annexin V/PI+ cells (K562 cells; 8 uM): 5.64% and 10.26% and 7.32%
reduction in the bioluminescence signal versus vehicle ([1]; 30 mg/kg, i.p., q.d., 14 days): 65%
average radiance ([1]; day 6 after transplantation (start of treatment)): 6110 p/s/cm2/sr and 4700 p/s/cm2/sr and 4630 p/s/cm2/sr and 3760 p/s/cm2/sr and 10800 p/s/cm2/sr and 52500 p/s/cm2/sr and 8750 p/s/cm2/sr
average radiance ([1]; day 13 after transplantation): 199000 p/s/cm2/sr and 275000 p/s/cm2/sr and 78900 p/s/cm2/sr and 62500 p/s/cm2/sr and 231000 p/s/cm2/sr and 5680 p/s/cm2/sr and 144000 p/s/cm2/sr
average radiance ([1]; day 19 after transplantation (last day of treatment)): 1090000 p/s/cm2/sr (2×) and 1280000 p/s/cm2/sr and 524000 p/s/cm2/sr and 386000 p/s/cm2/sr and 8110 p/s/cm2/sr and 9660 p/s/cm2/sr
hCD45+ % in PB [2, 6]: 6.6% and 0.44% and 0.41% and 0.23% and 0.21% and 0.19%
hCD45+ % in spleen [2, 6]: 2.39% and 0.79% and 1.14% and 1.53% and 0.61% and 1.12% and 0.041%
level of leukemic blasts (human CD45+ cells) in peripheral blood and spleen ([2]; last day of treatment): significantly lower level
B cells [3, 7]: 42.2% and 44% and 40.1% and 47.1% and 47.9% and 45.4% and 35.4% and 37.2% and 39.4%
Myeloid cells [3, 7]: 16.7% and 17.1% (2×) and 23.3% and 12.6% and 14.8% and 9.84% and 22.2% and 17.7%
T cells [3, 7]: 27.1% and 24.3% and 22.5% and 18.4% and 27% and 27.8% and 32.5% and 30% and 29.5%
T-cells [3, 8]: unaffected
myeloid and B-cells [3, 8]: slightly changed (increased and reduced, respectively)
AUC (PK studies in mice; female, CD-1, mouse, plasma, ip, 30 mg/kg): 10700 ng·h/mL
concentration at 0.167 h (PK studies in mice; female, CD-1, mouse, plasma, ip, 30 mg/kg, blood plasma level of AS-99, i.p., time 0.167 h): 9800 nM
concentration at 0.25 h (PK studies in mice; female, CD-1, mouse, plasma, ip, 30 mg/kg, blood plasma level of AS-99, i.p., time 0.25 h): 9110 nM
concentration at 0.5 h (PK studies in mice; female, CD-1, mouse, plasma, ip, 30 mg/kg, blood plasma level of AS-99, i.p., time 0.5 h): 6580 nM
concentration at 1 h (PK studies in mice; female, CD-1, mouse, plasma, ip, 30 mg/kg, blood plasma level of AS-99, i.p., time 1 h): 6110 nM
concentration at 2 h (PK studies in mice; female, CD-1, mouse, plasma, ip, 30 mg/kg, blood plasma level of AS-99, i.p., time 2 h): 2760 nM
concentration at 4 h (PK studies in mice; female, CD-1, mouse, plasma, ip, 30 mg/kg, blood plasma level of AS-99, i.p., time 4 h): 840 nM
concentration at 7 h (PK studies in mice; female, CD-1, mouse, plasma, ip, 30 mg/kg, blood plasma level of AS-99, i.p., time 7 h): 300 nM
concentration at 16 h (PK studies in mice; female, CD-1, mouse, plasma, ip, 30 mg/kg, blood plasma level of AS-99, i.p., time 16 h): 84 nM
concentration at 24 h (PK studies in mice; female, CD-1, mouse, plasma, ip, 30 mg/kg, blood plasma level of AS-99, i.p., time 24 h): 33.7 nM
AUC (PK studies in mice; female, CD-1, mouse, plasma, iv, 15 mg/kg): 9700 ng·h/mL
concentration at 0.083 h (PK studies in mice; female, CD-1, mouse, plasma, iv, 15 mg/kg, blood plasma level of AS-99, i.v., time 0.083 h): 25800 nM
concentration at 0.167 h (PK studies in mice; female, CD-1, mouse, plasma, iv, 15 mg/kg, blood plasma level of AS-99, i.v., time 0.167 h): 10200 nM
concentration at 0.25 h (PK studies in mice; female, CD-1, mouse, plasma, iv, 15 mg/kg, blood plasma level of AS-99, i.v., time 0.25 h): 6620 nM
concentration at 0.5 h (PK studies in mice; female, CD-1, mouse, plasma, iv, 15 mg/kg, blood plasma level of AS-99, i.v., time 0.5 h): 5200 nM
concentration at 1 h (PK studies in mice; female, CD-1, mouse, plasma, iv, 15 mg/kg, blood plasma level of AS-99, i.v., time 1 h): 1780 nM
concentration at 2 h (PK studies in mice; female, CD-1, mouse, plasma, iv, 15 mg/kg, blood plasma level of AS-99, i.v., time 2 h): 854 nM
concentration at 4 h (PK studies in mice; female, CD-1, mouse, plasma, iv, 15 mg/kg, blood plasma level of AS-99, i.v., time 4 h): 268 nM
concentration at 7 h (PK studies in mice; female, CD-1, mouse, plasma, iv, 15 mg/kg, blood plasma level of AS-99, i.v., time 7 h): 126 nM
concentration at 16 h (PK studies in mice; female, CD-1, mouse, plasma, iv, 15 mg/kg, blood plasma level of AS-99, i.v., time 16 h): 24.7 nM
concentration at 24 h (PK studies in mice; female, CD-1, mouse, plasma, iv, 15 mg/kg, blood plasma level of AS-99, i.v., time 24 h): 15.1 nM
Cmax (PK studies in mice; [9]): > 10000 nM
half-life (PK studies in mice; [9]): 5 to 6 h
blood plasma level of AS-99 (PK studies in mice; i.p., time 0.167 h): 8805 nM and 7458 nM
blood plasma level of AS-99 (PK studies in mice; i.p., time 0.25 h): 6902 nM and 8721 nM
blood plasma level of AS-99 (PK studies in mice; i.p., time 0.5 h): 6683.5 nM and 5152 nM
blood plasma level of AS-99 (PK studies in mice; i.p., time 1 h): 5269 nM and 5185 nM
blood plasma level of AS-99 (PK studies in mice; i.p., time 2 h): 3266 nM and 1801 nM
blood plasma level of AS-99 (PK studies in mice; i.p., time 4 h): 1054 nM and 710.4 nM
blood plasma level of AS-99 (PK studies in mice; i.p., time 7 h): 351.9 nM and 247.5 nM
blood plasma level of AS-99 (PK studies in mice; i.p., time 16 h): 71.89 nM and 86.7 nM
blood plasma level of AS-99 (PK studies in mice; i.p., time 24 h): 43.77 nM and 41.41 nM
blood plasma level of AS-99 (PK studies in mice; i.v., time 0.083 h): 37878.8 nM
blood plasma level of AS-99 (PK studies in mice; i.v., time 0.167 h): 7643.1 nM
blood plasma level of AS-99 (PK studies in mice; i.v., time 0.25 h): 5774 nM
blood plasma level of AS-99 (PK studies in mice; i.v., time 0.5 h): 4798 nM
blood plasma level of AS-99 (PK studies in mice; i.v., time 1 h): 2559 nM
blood plasma level of AS-99 (PK studies in mice; i.v., time 2 h): 611.1 nM
blood plasma level of AS-99 (PK studies in mice; i.v., time 4 h): 217.2 nM
blood plasma level of AS-99 (PK studies in mice; i.v., time 7 h): 94.11 nM
blood plasma level of AS-99 (PK studies in mice; i.v., time 16 h): 29.8 nM
blood plasma level of AS-99 (PK studies in mice; i.v., time 24 h): 15.32 nM
activity at 50 µM (DOT1L): 107%
% activity (DOT1L; 50 µM): 93.8212%
activity at 50 µM (GLP): 101%
% activity (GLP; 50 µM): 119.954%
activity at 50 µM (MLL1): 50%
% activity (MLL1; 50 µM): 69.7738%
% activity (MLL4): 79.3828% and 71.6922%
activity at 50 µM (NSD2): 92.1%
% activity (NSD2; 50 µM): 101.756%
activity at 50 µM (NSD3): 145%
% activity (NSD3; 50 µM): 128.837%
activity at 50 µM (PRDM9): 96.8%
% activity (PRDM9; 50 µM): 100.979%
activity at 50 µM (PRMT1): 122%
% activity (PRMT1; 50 µM): 110.616%
activity at 50 µM (PRMT6): 105%
% activity (PRMT6; 50 µM): 107.332%
activity at 50 µM (SETD2): 101%
% activity (SETD2; 50 µM): 99.1882%
activity at 50 µM (SMYD1): 81.1%
% activity (SMYD1; 50 µM): 68.7304%
% activity (SMYD2): 79.4042% and 102.085%
activity at 50 µM (SUV39H2): 88.7%
% activity (SUV39H2; 50 µM): 78.6146%
inhibition in a panel of representative kinases [4]: does not inhibit strongly; also recorded: did not show substantial inhibition
inhibition of the tested HMTs [5]: no significant inhibition
